Measured values: patent publication US4489091A, “Antilipemic and anti-inflammatory compositions containing sulfonate derivatives” (Taiho Pharmaceutical Company Limited, priority 1980, dated 1984)
Where two headings read alike, the source gives them in different places.

How the values were obtained:
triglycerides = assay: Antilipemic effect: percent triglycerides inhibition in plasma of rats given an olive oil-cholesterol mixture; format: in vivo, male Wistar rats; conditions: for inhibition in vivo at 100 mg/kg: oral 100 mg/kg, read-out: Anti-lipemic effect, TG (percent triglycerides inhibition); for inhibition in vivo at 200 mg/kg: read-out: Anti-lipemic effect, TG (percent triglycerides inhibition), asterisked
Experimental: (§1) The above compounds of this invention are tested by the following methods for antilipemic effect and acute toxicity. In the column of antilipemic effect in the table, the asterisked values indicate the effect achieved by orally giving 200 mg/kg of the compounds concerned, and the unmarked values, the effect attained by orally giving 100 mg/kg. In the same column, "TG" stands for percent triglycerides inhibition and "CS" percent cholesterol inhibition.
(§2) Seven-week-old male Wistar rats weighing 200 to 220 g are used, 5 rats in each group.
(§3) Each compound of the invention (100 mg or 200 mg) is dissolved in 10 ml of an olive oil-cholesterol mixture (containing 15% of cholesterol). The mixture containing the compound is orally given to the rat with a probe at a dose of 10 ml/kg. Two or 8 hours thereafter, 6 ml of whole blood is withdrawn from the descending aorta of the rat under ether anesthesia with a syringe containing heparin. The blood is centrifuged at 5° C. and 3000 r.p.m. to obtain the plasma. The plasma collected after the lapse of 2 hours is used for determining the triglycerides content, and the plasma obtained 8 hours later for determining the total cholesterol content, using a triglycerides measuring kit (trade mark "Triglycerides-B Test Wako," product of Wako Junyaku Co., Ltd., Japan) and a total cholesterol measuring kit (trade mark "Cholesterol Test Wako," product of the same), respectively. The olive oil-cholesterol mixture containing no compound is similarly given to a control group, while no treatment is conducted for a normal group. The triglycerides and total cholesterol contents in the plasma are also determined for these groups in the same manner as is the case with the test groups.
(§4) The present hyperlipidemia inhibition achieved by the present compound is given by [formula] in which A is the triglycerides (cholesterol) content of the control group, B is the triglycerides (cholesterol) content of the normal group, and C is the triglycerides (cholesterol) content of the group to which the present compound is given.

Acute toxicity = conditions: rat, in vivo
Text: Six-week-old male Wistar rats weighing 180 to 200 g are used, 5 rats in each group. Each compound of the invention is suspended in a 30% aqueous solution of polyethylene glycol 6000 and orally given to the rat at the dosage shown in Table 2. The animals are checked for poisoning, body weight and survival to determine the LD50 value.

cholesterol = assay: Antilipemic effect: percent total cholesterol inhibition in plasma of rats given an olive oil-cholesterol mixture; format: in vivo, male Wistar rats; conditions: oral 100 mg/kg, plasma 8 hours after dosing, Wistar rat; read-out: Anti-lipemic effect, CS (percent cholesterol inhibition)
Experimental: as §1, §2, §3, §4

[1] = plasma 2 hours after dosing, Wistar rat
[2] = oral 200 mg/kg (asterisked values), plasma 2 hours after dosing, Wistar rat
[3] = oral, six-week-old male Wistar rats, suspended in 30% aqueous polyethylene glycol 6000, read-out: LD50

Structure (SMILES)	inhibition in vivo at 100 mg/kg (triglycerides; [1]) [%]	LD50 (Acute toxicity; po) [mg/kg]	inhibition in vivo at 200 mg/kg (triglycerides; [2]) [%]	other results
CCCC(=O)COS(=O)(=O)c1cc(Cl)ccc1Cl [Compound 107]	75	> 1500	–	–
C=CCCC(=O)COS(=O)(=O)c1ccc(OCC)cc1 [Compound 52]	95	> 2000	–	inhibition in vivo at 100 mg/kg (cholesterol): 97%
CCCC(=O)COS(=O)(=O)c1ccc(NC(C)=O)cc1 [Compound 103]	–	> 3000	51	–
CCCC(=O)COS(=O)(=O)Cc1ccccc1 [Compound 4]	68	–	–	inhibition in vivo at 100 mg/kg (cholesterol): 52%
Cc1ccccc1S(=O)(=O)OCC(=O)CCCCCCC(C)C [Compound 33]	–	> 3000	67	–
C=CCCCCCCCCC(=O)COS(=O)(=O)c1c(C)cc(C)cc1C [Compound 88]	–	> 4000	66	–
CCCCCCCCCCC(=O)COS(=O)(=O)c1ccc(Cl)cc1 [Compound 69]	–	> 3000	77	–
CCCCCCCCCCCCc1ccc(S(=O)(=O)OCC(=O)CCC)cc1 [Compound 104]	–	> 3000	56	–
CCCC(=O)COS(=O)(=O)c1cc(Br)ccc1OC [Compound 119]	67	> 2000	–	–
CCCCC(CC)C(=O)COS(=O)(=O)c1c(C)cc(C)cc1C (stereo not drawn) [Compound 84]	59	> 4000	–	–
CCCC(=O)COS(=O)(=O)c1c(C)c(C)c(C)c(C)c1C [Compound 118]	–	> 3000	76	–
CCCCCCCCCC(=O)COS(=O)(=O)c1c(C)cc(C)cc1C [Compound 79]	–	> 4000	61	–
CCOc1ccc(S(=O)(=O)OCC(=O)CCC(CC)CC)cc1 [Compound 144]	–	–	–	inhibition in vivo at 200 mg/kg (triglycerides; Rattus norvegicus, po, 2 h): 55%; LD50 (Acute toxicity; [3]): > 4000 mg/kg
CCCC(=O)COS(=O)(=O)c1c(C(C)C)cc(C(C)C)cc1C(C)C [Compound 115]	–	> 3000	67	–
CCCCCCCCCCCCCCC(=O)COS(=O)(=O)c1ccc(C)cc1 [Compound 25]	–	> 3000	62	–
Cc1cc(C)c(C)c(S(=O)(=O)OCC(=O)CCCCCCC(C)C)c1C [Compound 94]	–	> 3000	51	–
CCOc1ccc(S(=O)(=O)OCC(=O)CCC2CCCCC2)cc1 [Compound 174]	–	–	–	TG (percent triglycerides inhibition), Table 3 (triglycerides; Table 3, dose not given): 100%
CCCCOc1ccc(S(=O)(=O)OCC(=O)CCC(C)C)cc1 [Compound 58]	–	> 4000	61	–
CCCC(=O)COS(=O)(=O)c1ccccc1C1OCCO1 [Compound 105]	–	> 3000	55	–
CCCC(=O)COS(=O)(=O)c1ccc(O)c(OC)c1 [Compound 110]	70	–	–	–
CCCCCCCCCCCC(=O)COS(=O)(=O)c1ccc(OC)cc1 [Compound 39]	–	> 4000	58	–
Cc1cc(C)c(S(=O)(=O)OCC(=O)CCCCCCC(C)C)c(C)c1 [Compound 85]	48	> 4000	–	–
CCCCCCCCCCCC(=O)COS(=O)(=O)c1c(C)cc(C)cc1C [Compound 81]	–	> 4000	60	–
CCCC(=O)COS(=O)(=O)c1ccc([N+](=O)[O-])cc1 [Compound 106]	–	–	60	–
CCCC(=O)COS(=O)(=O)c1ccc(Cl)cc1O [Compound 109]	–	> 2000	82	–
CCCC(=O)COS(=O)(=O)c1c(C)c(C)cc(C)c1C [Compound 89]	–	> 3000	56	–

Structure (SMILES)	inhibition in vivo at 100 mg/kg (triglycerides; [1]) [%]	LD50 (Acute toxicity; po) [mg/kg]	inhibition in vivo at 200 mg/kg (triglycerides; [2]) [%]	other results
CCC(C)C(=O)COS(=O)(=O)c1ccc(O)cc1 (stereo not drawn) [Compound 63]	76	> 2000	–	–
CCCCCCCCCCCCC(=O)COS(=O)(=O)c1ccc(C)cc1 [Compound 24]	–	> 3000	63	–
CCCCCCCCCC(=O)COS(=O)(=O)c1ccc(OCCCC)cc1 [Compound 57]	–	> 4000	52	–
CCCC(=O)COS(=O)(=O)c1ccc(C)c(Cl)c1 [Compound 108]	64	> 1500	–	–
C=CCCC(=O)COS(=O)(=O)c1c(C)c(C)cc(C)c1C [Compound 93]	–	> 3000	60	–
CCCCCC(=O)COS(=O)(=O)c1ccc(O)cc1 [Compound 60]	83	> 3000	–	–
CCCC(=O)COS(=O)(=O)C1CCCCC1 [Compound 3]	–	–	51	–
CC=CC(=O)COS(=O)(=O)c1ccccc1 [Compound 13]	72	–	–	–
C=CCCCCCCCCC(=O)COS(=O)(=O)c1ccc(OC)cc1 [Compound 42]	–	> 4000	57	–
CCCCCCCCCCC(=O)COS(=O)(=O)c1c(C)c(C)cc(C)c1C [Compound 92]	–	–	43	LD50 (Acute toxicity; [3]): > 3000 mg/kg
CCCC(=O)COS(=O)(=O)c1cccc(C(=O)O)c1 [Compound 102]	–	> 3000	42	–
CCCCCCC(=O)COS(=O)(=O)c1ccc(Cl)cc1 [Compound 67]	80	> 2000	–	–
CC(=O)COS(=O)(=O)c1c(C)cc(C)cc1C [Compound 71]	60	–	–	inhibition in vivo at 100 mg/kg (cholesterol): 82%
CCCC(=O)COS(=O)(=O)CCCOCC [Compound 2]	–	–	65	–
CCCCCCCCCC(=O)COS(=O)(=O)c1ccc(C)cc1 [Compound 22]	–	> 3000	62	–
CCCC(=O)COS(=O)(=O)c1cc(Cl)c(Cl)cc1Cl [Compound 113]	60	> 1500	–	–
CCCC(C)CC(=O)COS(=O)(=O)c1ccc(OCC)cc1 (stereo not drawn) [Compound 142]	47	> 4000	–	–
CCCCCCCC(=O)COS(=O)(=O)c1c(C)c(C)cc(C)c1C [Compound 91]	–	> 3000	47	–
CCCCCCCCC(=O)COS(=O)(=O)c1ccc(O)cc1 [Compound 61]	67	> 3000	–	–
CCCC(=O)COS(=O)(=O)c1ccc(O)cc1 [Compound 59]	70	> 3000	–	–
CCCCCCCCCCC(=O)COS(=O)(=O)c1ccc(C)cc1 [Compound 23]	–	> 3000	64	–
CCCCCCCCCC(=O)COS(=O)(=O)c1ccc(Cl)cc1 [Compound 68, 2-oxo-undecyl-p-chlorobenzene sulfonate]	62	–	–	LD50 (Acute toxicity; [3]): > 3000 mg/kg
CCCCOc1ccc(S(=O)(=O)OCC(=O)CCCC)cc1 [Compound 54]	48	> 2000	–	–
CCCCC=CCC(=O)COS(=O)(=O)c1c(C)cc(C)cc1C [Compound 87]	–	–	57	–
CCCCC(=O)COS(=O)(=O)c1ccccc1 [Compound 7]	98	–	–	inhibition in vivo at 100 mg/kg (cholesterol): 67%
